Laboratory results from US11400132B2 (NOVALIQ GMBH, priority 2016, dated 2022).

Experiment: Water solubility / residual water in 1-perfluorobutyl-pentane
Assay type: physicochemical
Conditions: based on weight of 1-perfluorobutylpentane
Excerpt: The predominant contribution to residual water content in the composition can be attributed to water sorption or association with ciclosporin (e.g. not limited to, but for example derived from manufacturing process, or its transport and storage).
The 1-perfluorobutyl-pentane as featured in any of the compositions or methods described herein is preferably essentially free of water. In such case, the presence of residual water in the composition according to the invention is derived from the ciclosporin or optionally, if present, one or more excipients that is functionally not a co-solvent.

Compound: CCCCCC(F)(F)C(F)(F)C(F)(F)C(F)(F)F [F4H5, 1-perfluorobutyl-pentane]
- water solubility in 1-perfluorobutylpentane: less than 1.20×10^−5 wt %
